These results are taken from patent US20080306073A1, “Antitumor Effect Potentiator, Antitumor Preparation, and Method for Treating Cancer” (priority 2005, published 2008).

Like-named read-outs stand apart in the source and are kept apart here. Marks after values point to notes of the source that are not given here.

The subject of one data set is 5-FU decomposition. The note with it: compared with uracil; cited from earlier work.
Data set [1] has as its system human colon cancer xenograft COL-1 strain. The experiment in a line: Preliminary test: maximum tolerable dose of capecitabine (Pharmacological Test Example 5). It counts as in vivo, male nude mice BALB/c-nu/nu. As to conditions: capecitabine po once a day 14 days at 240, 360 or 540 mg/kg with l-OHP 4.2 mg/kg/day iv days 1 and 8.
Protocol: A fragment measuring about 2 mm cubic fragment of the human colon cancer xenograft COL-1 strain was subcutaneously implanted on the backs of male nude mice BALB/c-nu/nu. When the average tumor volume (=0.5×major axis (mm)×minor axis (mm)^2) reached about 190 mm^3, the mice were divided into groups (day 0). Capecitabine suspended in 0.5% HPMC solution was orally administered to the mice once a day at 240, 360, or 540 mg/kg from the day after grouping for 14 consecutive days. l-OHP dissolved in 5% aqueous glucose solution was administered into the tail vein on days 1 and 8 at 4.2 mg/kg/day immediately before the administration of the Capecitabine. The difference in body weight between the mice on day 0 and the mice on day 15 presented as a ratio and the occurrence of death were used as indices of systemic toxicity of capecitabine.
Data set [2] has the same test system. As to conditions: l-OHP into the tail vein on days 1 and 8.
Protocol: A fragment measuring about 2 mm cubic fragment of the human colon cancer xenograft COL-1 strain was subcutaneously implanted on the backs of male nude mice BALB/c-nu/nu. When the average tumor volume (=0.5×major axis (mm)×minor axis (mm)^2) reached about 170 mm^3, the mice were divided into groups (day 0).
For the determination of antitumor effect, the ratio of the tumor volume upon grouping (day 0) to the tumor volume on day 15 was calculated to obtain a relative tumor volume. The extent of tumor growth inhibition was determined using the average relative tumor volumes of the drug-administered groups and the control group. Using the relative tumor volumes on the test day, the statistical significance of the difference in relative tumor volume between the control group and the one which was given the pharmaceutical agents was analyzed according to a Dunnett's test; and the statistical significance of the difference in relative tumor volume between the one which was given TS-1 and l-OHP in combination and the one which was given capecitabine and l-OHP in combination was analyzed according to Student's t-test. The extent of body weight change between the mice on day 0 and the mice on day 15 was used as an index of systemic toxicity of the pharmaceutical preparations.
Data set [3] concerns human colon cancer xenograft HCT-15 strain. Briefly: Action toward a multidrug-resistant strain (Pharmacological Test Example 3). It counts as in vivo, male nude mice BALB/c-nu/nu.
Description: A fragment measuring about 2 mm cubic fragment of the human colon cancer xenograft HCT-15 strain, which expresses P-glycoprotein in large amounts and is resistant to multiple drugs, was subcutaneously implanted on the backs of male nude mice BALB/c-nu/nu. When the average tumor volume (=0.5×major axis (mm)×minor axis (mm)^2) reached about 200 mm^3, the mice were divided into groups (day 0). A TS-1 preparation as prepared in Pharmacological Test Example 1 was orally administered to the mice once a day in an amount as shown in Table 3 from day 1 for 14 consecutive days. The l-OHP preparation was administered only once into the tail vein on day 1 at 10.0 mg/kg immediately before the administration of the TS-1 preparation. The extent of tumor growth inhibition was calculated as in Pharmacological Test Example 1. Using the relative tumor volumes on day 15, the difference in relative tumor volume between the control group and the drug-administered groups was determined according to a Dunnett's test, and the difference between the one which was given either TS-1 or l-OHP and the one which was given TS-1 and l-OHP in combination was evaluated according to Student's t-test.
Data set [4] has as its system human colon cancer xenograft COL-1 strain. As to conditions: TS-1 where given 6.9 mg/kg as tegafur po 14 days; for Relative tumor volume (Mean): day 15/day 0; for Extent of tumor growth inhibition (%): day 15; for Extent of body weight change (%): day 15 vs day 0.
Protocol: A fragment measuring about 2 mm cubic fragment of the human colon cancer xenograft COL-1 strain was subcutaneously implanted on the backs of male nude mice BALB/c-nu/nu. When the average tumor volume (=0.5×major axis (mm)×minor axis (mm)^2) reached about 125 mm^3, the mice were divided into groups (day 0).
For the determination of antitumor effect, the ratio of the tumor volume upon grouping (day 0) to the tumor volume on day 15 was calculated to obtain a relative tumor volume. The extent of tumor growth inhibition was determined using the average relative tumor volumes of the drug-administered groups and the control group.
The extent of body weight change between the mice on day 0 and the mice on day 15 was used as an index of systemic toxicity of l-OHP.
For data set [5], the system named is human colon cancer xenograft KM20C strain. The experiment in a line: Antitumor effect on human colon cancer xenograft KM20C in nude rats (Pharmacological Test Example 1). The note with it: TS-1 12 or UFT 24 mg/kg/day as tegafur (+ LV 20) po 14 days, l-OHP 10 mg/kg iv day 1. For orientation: In xenograft studies the graft and the host belong to different species.
Description: A tegafur/gimeracil/oteracil potassium compound pharmaceutical agent (tegafur/gimeracil/oteracil potassium molar ratio=1:0.4:1, hereinafter sometimes referred to as TS-1), a tegafur/uracil compound pharmaceutical agent (tegafur/uracil molar ratio=1:4, hereinafter sometimes referred to as UFT), and d,l-calcium folinate were independently dissolved or suspended in 0.5% hydroxypropylmethyl cellulose (HPMC) solutions, and pharmaceutical preparations were formulated so as to allow administration thereof in a final dosage of 10 mL/kg.
l-OHP was dissolved in 5% aqueous glucose solution (Otsuka Glucose, manufactured by Otsuka Pharmaceutical Factory Inc.), thereby giving an l-OHP preparation.
A fragment measuring about 2 mm cubic fragment of the human colon cancer xenograft KM20C strain was subcutaneously implanted on the backs of male nude rats F344/NJcl-rnu. When the average tumor volume (=0.5×major axis (mm)×minor axis (mm)^2) reached about 200 mm^3, the rats were divided into groups (day 0).
The TS-1 preparation or the UFT+LV preparation prepared above was orally administered once a day in amounts presented in Table 1 from the day after grouping (day 1) for 14 consecutive days. The l-OHP preparation was administered into the tail vein on day 1 at 10 mg/kg immediately before the administration of the aforementioned preparations.
The ratio of the tumor volume upon grouping (day 0) to the tumor volume on day 15 was regarded as the relative tumor volume: Tumor volume on day 15/Tumor volume on day 0
The extent of tumor growth inhibition (%) was calculated using the average relative tumor volume of the drug-administered groups and the average relative tumor volume of the control group:
[1−(Relative tumor volume of drug-administered group)/(Relative tumor volume of tumor-bearing control group)]×100 (%)
The difference in body weight between rats on day 0 and rats on day 15 presented as a ratio (extent of body weight change) was used as an index of systemic toxicity of the pharmaceutical preparation: […]

Data set [6] concerns 5-FU-resistant strain of the human colon cancer xenograft KM12C strain. Briefly: Action toward a 5-FU-resistant strain (Pharmacological Test Example 2). The note with it: TS-1 8.3 mg/kg/day as tegafur po 9 days, l-OHP 8.3 mg/kg iv day 1.
Protocol: A fragment measuring about 2 mm cubic fragment of a 5-FU-resistant strain of the human colon cancer xenograft KM12C strain established by the applicant was subcutaneously implanted on the backs of male nude mice BALB/c-nu/nu. When the average tumor volume (=0.5×major axis (mm)×minor axis (mm)^2) reached about 200 mm^3, the mice were divided into groups (day 0). […] The ratio of the tumor volume on day 0 to the tumor volume on day 10 was calculated to obtain a relative tumor volume.
Where [7] appears, read: l-OHP 2.9 mg/kg iv days 1 and 8.
The mark [8] stands for this setting: l-OHP 3.5 mg/kg iv days 1 and 8.
Where [9] appears, read: l-OHP 4.2 mg/kg iv days 1 and 8.
Where [10] appears, read: l-OHP 5.0 mg/kg iv days 1 and 8.

In the case of `Oc1cc(O)c(Cl)cn1` [gimeracil, 2,4-dihydroxy-5-chloropyridine], the “5-FU decomposition inhibitory action relative to that of uracil” value with 5-FU decomposition is recorded as “about 200 times”.

Regarding `CCCCCOC(=O)Nc1nc(=O)n([C@@H]2O[C@H](C)[C@@H](O)[C@H]2O)cc1F` [capecitabine], in data set [1], the “maximum tolerable dose at which death due to toxicity is not observed” value turned out to be 360 mg/kg/day.

Consider `O=C([O-])C(=O)[O-].[NH-][C@@H]1CCCC[C@H]1[NH-].[Pt+4]` (relative stereo) [l-OHP, cis-oxalate(1R,2R-diaminocyclohexane)platinum(II)], for which the maximum tolerable dose in data set [2] is 4.2 mg/kg/day. The “Relative tumor volume (Mean)” value in data set [3] (day 15/day 0, TS-1 10 mg/kg/day as tegafur po 14 days, l-OHP 10 mg/kg iv once day 1) is recorded as 4.33; in data set [4] (setting [7]), 5.06 ^§; in data set [4] (setting [8]), 4.54 ^§, *; in data set [4] (setting [9]), 4.43 ^§, **; in data set [4] (setting [10]), 4.41 ^§, **; in data set [5] (day 15/day 0), 4.64. In data set [6] (day 10/day 0), the “Relative tumor volume (Mean)” value is 7.97. Further, the “Extent of tumor growth inhibition (%)” value in data set [3] (day 15, TS-1 10 mg/kg/day as tegafur po 14 days, l-OHP 10 mg/kg iv once day 1) was determined as 4.3%; in data set [4] (setting [7]), 11.9%; in data set [4] (setting [8]) it was 21.0%; in data set [4] (setting [9]), 23.0%; in data set [4] (setting [10]) it was 23.3%; in data set [5] (day 15), 20.1%. Further, the “Extent of tumor growth inhibition (%)” value in data set [6] (day 10) came to 16.1%. Further, the “antitumor effect on the multidrug-resistant tumor (in words)” value in data set [3] (l-OHP alone, 10 mg/kg iv once day 1) is listed as “barely shows any antitumor effect”. The “Extent of body weight change (%)” value in data set [4] (setting [7]) is listed as −18.0%; in data set [4] (setting [8]), −20.6%; in data set [4] (setting [9]) it was −19.0%; in data set [4] (setting [10]), −16.8%; in data set [5] (day 15 vs day 0) it was 0.9%; in data set [6] (day 10 vs day 0), −8.0%. Besides, the “Number of dead animal” value in data set [4] (setting [7]), in data set [4] (setting [8]), in data set [4] (setting [9]) and in data set [4] (setting [10]) was 0 throughout.
